From ChEMBL document CHEMBL1144603, “Synthesis and biological evaluation of new taxoids derived from 2-deacetoxytaxinine J” (Bioorg Med Chem Lett, 2007)
Active and inactive are the calls of the source. No cut-off for these calls is given here.

What was measured:
MCF7 [1] = experiment: MDR-reversal in paclitaxel-resistant […] cell growth assay; assay type: functional, cell-based; conditions: Homo sapiens
MCF7 [2] = experiment: MDR-reversal in paclitaxel-resistant […] cell growth assay as reduction of IC50 at 1uM; assay type: functional, cell-based, Homo sapiens
MCF7 [3] = experiment: MDR-reversal in paclitaxel-resistant […] cell growth assay as reduction of IC50 at 0.1uM; assay type: functional, cell-based, Homo sapiens

Row | percent reduction of paclitaxel IC50 (MCF7 [2]) | IC50 reduction (MCF7 [3]) | SMILES | Activity (MCF7 [1])
1 |  |  | C=C1[C@@H](OC(=O)c2ccccc2)C[C@H](OC(C)=O)[C@]2(C)[C@@H]1C[C@@H]1C[C@H](OC(C)=O)C(C)=C(C1C)[C@@H](OC(C)=O)[C@@H]2OC(C)=O (single isomer, unassigned) | inactive
2 | 47% |  | C=C1[C@H]2C[C@@H]3C[C@H](O)C(C)=C([C@@H](OC(C)=O)[C@H](OC(C)=O)[C@]2(C)[C@@H](OC(C)=O)C[C@@H]1O)[C@@H]3C | 
3 |  |  | C=C1[C@@H](OC(=O)/C=C/c2ccccc2)C[C@H](OC(C)=O)[C@]2(C)[C@@H]1C[C@@H]1C[C@H](OC(=O)/C=C/c3ccccc3)C(C)=C([C@@H](OC(C)=O)[C@@H]2OC(C)=O)[C@@H]1C | inactive
4 |  |  | C=C1[C@@H](OC(=O)/C=C/c2ccccc2)C[C@H](OC(C)=O)[C@]2(C)[C@@H]1C[C@@H]1C[C@H](OC(=O)[C@@H]3OC(c4ccc(OC)cc4OC)N(C(=O)OC(C)(C)C)[C@H]3CC(C)C)C(C)=C([C@@H](OC(C)=O)[C@@H]2OC(C)=O)[C@@H]1C (some centres undefined) | inactive
5 | 95% | 67% | C=C1[C@H]2C[C@@H]3C[C@H](OC(=O)c4ccccc4)C(C)=C([C@@H](OC(C)=O)[C@H](OC(C)=O)[C@]2(C)[C@@H](OC(C)=O)C[C@@H]1O)[C@@H]3C | 
6 |  |  | C=C1[C@@H](OC(=O)[C@@H]2OC(c3ccc(OC)cc3OC)N(C(=O)OC(C)(C)C)[C@H]2CC(C)C)C[C@H](OC(C)=O)[C@]2(C)[C@@H]1C[C@@H]1C[C@H](OC(C)=O)C(C)=C([C@@H](OC(C)=O)[C@@H]2OC(C)=O)[C@@H]1C (some centres undefined) | inactive
7 | 92% | 22% | C=C1[C@@H](OC(=O)/C=C/c2ccccc2)C[C@H](OC(C)=O)[C@]2(C)[C@@H]1C[C@@H]1C[C@H](OC(C)=O)[C@]3(C)O[C@@]3([C@@H]1C)[C@@H](OC(C)=O)[C@@H]2OC(C)=O | 
8 | 89% | 24% | C=C1[C@H]2C[C@@H]3C[C@H](OC(=O)[C@@H](O)Cc4ccccc4)C(C)=C([C@@H](OC(C)=O)[C@H](OC(C)=O)[C@]2(C)[C@@H](OC(C)=O)C[C@@H]1O)[C@@H]3C | 
9 | 85% |  | CC(=O)O[C@H]1C[C@H]2C[C@@H]3[C@]4(CO4)[C@@H](OC(=O)/C=C/c4ccccc4)C[C@H](OC(C)=O)[C@@]3(C)[C@@H](OC(C)=O)[C@H](OC(C)=O)C(=C1C)[C@@H]2C | 
10 | 70% | 2% | CC(=O)O[C@H]1C[C@H](OC(=O)/C=C/c2ccccc2)[C@@]2(CO2)[C@H]2C[C@@H]3C[C@H](OC(C)=O)[C@]4(C)O[C@@]4([C@@H]3C)[C@@H](OC(C)=O)[C@H](OC(C)=O)[C@]12C | 
11 |  |  | C=C1[C@@H](OC(=O)/C=C/c2ccccc2)C[C@H](OC(C)=O)[C@]2(C)[C@@H]1C[C@@H]1C[C@H](OC(=O)C(O)[C@@H](CC(C)C)NC(=O)OC(C)(C)C)C(C)=C([C@@H](OC(C)=O)[C@@H]2OC(C)=O)[C@@H]1C (some centres undefined) | inactive
12 | 93% |  | C=C1[C@H]2C[C@@H]3C[C@H](OC(=O)[C@H](O)[C@H](CC(C)C)NC(=O)OC(C)(C)C)C(C)=C([C@@H](OC(C)=O)[C@H](OC(C)=O)[C@]2(C)[C@@H](OC(C)=O)C[C@@H]1O)[C@@H]3C | 
13 | 92% |  | C=C1[C@@H](O[Si](CC)(CC)CC)C[C@H](OC(C)=O)[C@]2(C)[C@@H]1C[C@@H]1C[C@H](OC(C)=O)C(C)=C(C1C)[C@@H](OC(C)=O)[C@@H]2OC(C)=O (single isomer, unassigned) | 
14 | 92% | 35% | C=C1[C@H]2C[C@@H]3C[C@H](OC(=O)/C=C/c4ccccc4)C(C)=C([C@@H](OC(C)=O)[C@H](OC(C)=O)[C@]2(C)[C@@H](OC(C)=O)C[C@@H]1O)[C@@H]3C | 
